Source: US9849113B2, “Methods of treating α adrenergic mediated conditions” (Allergan, Inc., priority 2008, dated 2017)

Tests used:
Chung model rats = experiment: Chung model of chronic pain (spinal nerve ligation), tactile allodynia by von Frey hairs; type: in vivo, rat; conditions: single oral dose, FIG. 1
Procedure: Various concentrations of N-(2,3-dichlorobenzyl)-4,5-dihydro-1H-imidazol-2-amine were administered orally to Chung model rats. A model in accordance with Kim and Chung 1992, Pain […], pp 355-363 (Chung model), for chronic pain (in particular peripheral neuropathy) involves the surgical ligation of the L5 (and optionally the L6) spinal nerves on one side in experimental animals. Rats recovering from the surgery gain weight and display a level of general activity similar to that of normal rats. However, these rats develop abnormalities of the foot, wherein the hindpaw is moderately everted and the toes are held together. More importantly, the hindpaw on the side affected by the surgery appears to become sensitive to pain from low-threshold mechanical stimuli, such as that producing a faint sensation of touch in a human, within about 1 week following surgery. […]
Tactile allodynia is measured prior to and 30 minutes after drug administration using von Frey hairs that are a series of fine hairs with incremental differences in stiffness. […] The applied force has been calculated to range from 0.41 to 15.1 grams. […] The 50% paw withdrawal threshold is determined using the method of Dixon, W. J., Ann. […] The post-drug threshold is compared to the pre-drug threshold and the percent reversal of tactile sensitivity is calculated based on a normal threshold of 15.1 grams.

male ddC treated rats = experiment: Dideoxycytidine (ddC) model of neuropathic pain, allodynia by von Frey hairs; type: in vivo, rat; conditions: for % Allodynia Reversal: 15 min post dose / % Allodynia Reversal: 30 min post dose / % Allodynia Reversal: 60 min post dose / % Allodynia Reversal: 120 min post dose: mean ± SEM
Procedure: The ddC Model in the rat is a relatively new model of neuropathic pain discovered from clinical treatment of the AIDS virus. […] The experimental animal model in the rat for neuropathic pain by ddC injection manifests symptoms of human patients with causalgia. It is considered predictive of clinical activity against neuropathic pain (Joseph et al, 2004). Compound N-(2,3-dichlorobenzyl)-4,5-dihydro-1H-imidazol-2-amine was tested in this ddC model of allodynic pain. The compound was administered intraperitoneally to male ddC treated rats.
The animals are injected intraperitoneally (IP) with 25 mg/kg dideoxycytidine (ddC) using a sterile 30 gauge needle. Approximately 3 weeks after the ddC injection a painful neuropathy develops causing sensitivity to light touch on the animals' extremities. This neuropathy can last for 2-3 months. The animals show no spontaneous pain, only a heightened response to mechanical stimuli (von Frey hair stimulation). The allodynia is quantitated in the animals receiving ddC injections by stimulation with a series of 8 Von Frey hairs on the mid planter area of the hind paws in the up-down manner described by Dixon (Dixon, 1980).
Male Sprague-Dawley rats (Charles River, Wilmington, Mass.) weighing approximately 150-300 grams were used for these studies. All experimental animals received N-(2,3-dichlorobenzyl)-4,5-dihydro-1H-imidazol-2-amine or vehicle in a single acute IP dose. In all studies, baseline measurements were taken prior to drug administration and then at 15, 30, 60 and 120 minutes post acute IP dosing (vehicle or N-(2,3-dichlorobenzyl)-4,5-dihydro-1H-imidazol-2-amine). The % allodynia reversal is calculated as: [(Postdrug threshold—Predrug threshold)/(15-Predrug threshold)]×100.
N-(2,3-dichlorobenzyl)-4,5-dihydro-1H-imidazol-2-amine was dissolved in 42% DMSO (dimethyl sulfoxide; Sigma, St. Louis, Mo.) at a concentration of 3 mg/ml. This stock solution was kept frozen at −20° C., was thawed on the day of the study and diluted in dd-H2O to concentrations ranging from 0.01-0.1 mg/ml for IP dosing (dosing volume=1 ml/kg). The vehicle is dd-H2O for these studies.
Data were compiled and analyzed using Microsoft Excel and/or Kaleidagraph. Data are expressed as mean± standard error of the mean. Comparisons between drug treated and vehicle groups were made using a two-tailed, 2-sample, unpaired t-test. Comparisons between baselines (pre-drug) and post-drug time points were made using a two-tailed, 2-sample, paired t-test.

In the case of `Clc1cccc(CNC2=NCCN2)c1Cl` [N-(2,3-dichlorobenzyl)-4,5-dihydro-1H-imidazol-2-amine], the “Time of decrease of allodynia reversal to baseline” value (Chung model rats) is reported as “about 120 minutes”, the “Time of peak percent allodynia reversal” value (Chung model rats) is reported as 30 min and the “% Allodynia Reversal: 15 min post dose” value (male ddC treated rats; 0.01 mg/kg IP, n = 6) is reported as 1.8 ± 1.6%. For the same molecule, the “% Allodynia Reversal: 30 min post dose” value (male ddC treated rats; 0.01 mg/kg IP, n = 6) was 3.0 ± 1.7%, the “% Allodynia Reversal: 60 min post dose” value (male ddC treated rats; 0.01 mg/kg IP, n = 6) was 1.5 ± 2.0% and the “% Allodynia Reversal: 120 min post dose” value (male ddC treated rats; 0.01 mg/kg IP, n = 6) was 0.1 ± 1.3%. For the same molecule, the “% Allodynia Reversal: 15 min post dose” value (male ddC treated rats; 0.03 mg/kg IP, n = 6) was 34 ± 3.9 %, the “% Allodynia Reversal: 30 min post dose” value (male ddC treated rats; 0.03 mg/kg IP, n = 6) was 67% and the “% Allodynia Reversal: 60 min post dose” value (male ddC treated rats; 0.03 mg/kg IP, n = 6) was 20 ± 3.7 %. The “% Allodynia Reversal: 120 min post dose” value (male ddC treated rats; 0.03 mg/kg IP, n = 6) was 2.0 ± 2.6%, the “% Allodynia Reversal: 30 min post dose” value (male ddC treated rats; 0.03 mg/kg IP, n = 6, listed as 200762) was 67 ± 9.0 % and the “% Allodynia Reversal: 15 min post dose” value (male ddC treated rats; 0.1 mg/kg IP, n = 6) was 58 ± 9.1 %. For the same molecule, the “% Allodynia Reversal: 30 min post dose” value (male ddC treated rats; 0.1 mg/kg IP, n = 6) was 86%, the “% Allodynia Reversal: 60 min post dose” value (male ddC treated rats; 0.1 mg/kg IP, n = 6) was 34 ± 2.5 % and the “% Allodynia Reversal: 120 min post dose” value (male ddC treated rats; 0.1 mg/kg IP, n = 6) was 0.9 ± 1.2%. For the same molecule, the “% Allodynia Reversal: 30 min post dose” value (male ddC treated rats; 0.1 mg/kg IP, n = 6, listed as 200762) was 86 ± 6.3 %, the “Minimal statistically significant efficacious dose” value (male ddC treated rats; IP, male rats) was 0.03 mg/kg and the No-effect dose (male ddC treated rats; IP, male rats) was 0.01 mg/kg.
